In PubChem BioAssay AID2060512 (Molecular Pharmacology Branch, DTP, NCI, 2025):
pIC50: −log10 of the molar value.

Test system: 186277-243-T-J2-PDC complex spheroid viability
Test: Anticancer human tumor 186277-243-T-J2-PDC patient-derived colon adenocarcinoma cell line growth inhibition [GQUAD]
Details: for pIC50: curve of first compound; for viability, T/C: stronger effect = lower value
Source text: DNA G-quadruplex Stabilizer Agents in Combinations in Complex Spheroids
A high-throughput screen of multi-cell type tumor spheroids was designed to identify active combinations of DNA G-quadruplex stabilizer agents and targeted small molecules. Complex spheroids include a stromal component modeled by human endothelial cells (HUVEC) and fibroblasts modeled by human mesenchymal stem cells (MSCs). The concentration ranges selected for each drug and investigational agent were based upon clinically achievable concentrations if the clinical Cmax of the agent was known.
Compounds. The drugs and investigational agents: pidnarulex (CX-5461; NSC782164), APTO-253 (NSC789042), BRACO-19 (NSC847499), peposertib (NSC802822), ceralasertib (NSC780249), elimusertib (NSC800525), camonsertib (NSC841442), AZD-1390 (NSC803789), olaparib (NSC753686), talazoparib (NSC767125), ART-558 (NSC835418), sotorasib (NSC818433), MRTX-1133 (NSC836407), SN-38 (NSC673596), topotecan (NSC609699), etoposide (NSC141540), doxorubicin (NSC123127), gemcitabine (NSC613327), 5-fluorouracil (NSC19893), paclitaxel (NSC125973), vemurafenib (NSC761431), panobinostat (NSC761190), R-306465 (JNJ-16241199; NSC773264), adavosertib (NSC754352), TP-3654 (NSC805149), carboplatin (NSC241240), KSQ-4279 (NSC840948), and staurosporine (NSC755774) were obtained from the National Cancer Institute (NCI) Developmental Therapeutics Program Chemical Repository (34). The FDA-approved anticancer drug set is available from the NCI Developmental Therapeutics Program. […] The stock solutions were prepared in dimethyl sulfoxide (DMSO, Sigma-Aldrich, St. Louis, MO, cat. D2650) at 800-fold the tested concentration and stored at -70 degrees C prior to their use. All drugs and investigational agents were tested over a range starting from a high concentration at or near the clinical Cmax and decreasing in half-log increments. If the clinical Cmax for an agent had not been determined, the highest concentration tested was 10 microM.
2.3 Cell Culture. All cells were maintained in an incubator at 37 degrees C and 5% CO2 with 95% humidity. The PDC lines were cultured according to standard operating procedures established by the NCI PDMR. All PDCs were thawed and cultured in Matrigel-coated flasks prepared with a working solution of 1X Ham's F-12 nutrient mix, without supplementation (Invitrogen, cat. 11765054), 100 U/mL penicillin-streptomycin (Invitrogen, cat. 15140122), and 2.5% Matrigel (Corning Inc., cat. 354248) for the first three passages. The 857933-349-R-J2-PDC line was cultured in 6C/Colon 1B media, which includes advanced DMEM/F-12 (Thermo Fisher Scientific, cat. 12634028), 10 mM HEPES (Thermo Fisher Scientific, cat. 15630080), 1X GlutaMAX supplement (Thermo Fisher Scientific, cat. 35050061), 0.1 mg/mL primocin (InvivoGen, cat. ant-pm-2), 10% defined fetal bovine serum, heat inactivated (HyClone Laboratories Inc., cat. SH30070.03HI), 50% L-WRN conditioned media (ATCC, cat. CRL-3276), 1.25 mM N-Acetyl-L-cysteine (Sigma-Aldrich, cat. A9165), 10 mM nicotinamide (Sigma-Aldrich, cat. N0636), 1X B-27 supplement (Thermo Fisher Scientific, cat. 17504044), 1X N-2 supplement (Thermo Fisher Scientific, cat. 17502048), 10 microM Y-27632 dihydrochloride (Tocris Bioscience, cat. 1254), and 50 ng/mL human EGF recombinant protein (Thermo Fisher Scientific, cat. PHG0311). The 485176-168-R4-J1-PDC line was cultured in Panc media, which includes all 6C/Colon 1B media components plus 100 ng/mL human FGF-10 (Thermo Fisher Scientific, cat. 100-26), 500 nM SB-431542 (Selleckchem, cat. S1067), and gastrin (Tocris, cat. 3006).
[…]

[1] = second compound 0.0316 µM, first compound 0.0316 µM
[2] = second compound 0.0316 µM, first compound 0.1 µM
[3] = second compound 0.0316 µM, first compound 0.316 µM
[4] = second compound 0.0316 µM, first compound 1 µM
[5] = second compound 0.0316 µM, first compound 3.16 µM
[6] = second compound 0.0316 µM, first compound 10 µM
[7] = second compound 0.1 µM, first compound 0.0316 µM
[8] = second compound 0.1 µM, first compound 0.1 µM
[9] = second compound 0.1 µM, first compound 0.316 µM
[10] = second compound 0.1 µM, first compound 1 µM
[11] = second compound 0.1 µM, first compound 3.16 µM
[12] = second compound 0.1 µM, first compound 10 µM
[13] = second compound 0.316 µM, first compound 0.0316 µM
[14] = second compound 0.316 µM, first compound 0.1 µM
[15] = second compound 0.316 µM, first compound 0.316 µM
[16] = second compound 0.316 µM, first compound 1 µM
[17] = second compound 0.316 µM, first compound 3.16 µM
[18] = second compound 0.316 µM, first compound 10 µM
[19] = second compound 1 µM, first compound 0.0316 µM
[20] = second compound 1 µM, first compound 0.1 µM
[21] = second compound 1 µM, first compound 0.316 µM
[22] = second compound 1 µM, first compound 1 µM
[23] = second compound 1 µM, first compound 3.16 µM
[24] = second compound 1 µM, first compound 10 µM
[25] = second compound 3.16 µM, first compound 0.0316 µM
[26] = second compound 3.16 µM, first compound 0.1 µM
[27] = second compound 3.16 µM, first compound 0.316 µM
[28] = second compound 3.16 µM, first compound 1 µM
[29] = second compound 3.16 µM, first compound 3.16 µM
[30] = second compound 3.16 µM, first compound 10 µM
[31] = second compound 10 µM, first compound 0.0316 µM
[32] = second compound 10 µM, first compound 0.1 µM
[33] = second compound 10 µM, first compound 0.316 µM
[34] = second compound 10 µM, first compound 1 µM
[35] = second compound 10 µM, first compound 3.16 µM
[36] = second compound 10 µM, first compound 10 µM
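Also: spheroids exposed to drugs for 7 days.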
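For viability, T/C in this document: 100% = DMSO vehicle control viability.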

## C=CCn1c(=O)c2cnc(Nc3ccc(N4CCN(C)CC4)cc3)nc2n1-c1cccc(C(C)(C)O)n1 + Cc1[nH]c2ccc(F)cc2c1-c1nc2c3cccnc3c3ncccc3c2[nH]1
Second compound 0.0316 µM
  pIC50: 6.76
Second compound 0.1 µM
  pIC50: 6.74
Second compound 0.316 µM
  pIC50: 6.75
Second compound 1 µM
  pIC50: 6.75
Second compound 3.16 µM
  pIC50: 6.85
Second compound 10 µM
  pIC50: 6.86
[1]
  viability, T/C: 97.9%
[2]
  viability, T/C: 83.8%
[3]
  viability, T/C: 13.2%
[4]
  viability, T/C: 7.62%
[5]
  viability, T/C: 8.21%
[6]
  viability, T/C: 8.87%
[7]
  viability, T/C: 112%
[8]
  viability, T/C: 87.8%
[9]
  viability, T/C: 13.6%
[10]
  viability, T/C: 9.07%
[11]
  viability, T/C: 9.3%
[12]
  viability, T/C: 9.89%
[13]
  viability, T/C: 108%
[14]
  viability, T/C: 88%
[15]
  viability, T/C: 12.7%
[16]
  viability, T/C: 8.61%
[17]
  viability, T/C: 9.09%
[18]
  viability, T/C: 11.5%
[19]
  viability, T/C: 97.1%
[20]
  viability, T/C: 87.4%
[21]
  viability, T/C: 13.7%
[22]
  viability, T/C: 8.91%
[23]
  viability, T/C: 9.37%
[24]
  viability, T/C: 10.9%
[25]
  viability, T/C: 96.4%
[26]
  viability, T/C: 67.2%
[27]
  viability, T/C: 11.1%
[28]
  viability, T/C: 8.17%
[29]
  viability, T/C: 8.58%
[30]
  viability, T/C: 10.8%
[31]
  viability, T/C: 89.9%
[32]
  viability, T/C: 64.6%
[33]
  viability, T/C: 12.9%
[34]
  viability, T/C: 8.07%
[35]
  viability, T/C: 8.03%
[36]
  viability, T/C: 10.3%

## CC1COCCN1c1cc(-c2ccnn2C)c2ccnc(-c3ccn[nH]3)c2n1 (centres undefined) + Cc1[nH]c2ccc(F)cc2c1-c1nc2c3cccnc3c3ncccc3c2[nH]1
Second compound 0.0316 µM
  pIC50: 7.30
Second compound 0.1 µM
  pIC50: 7.31
Second compound 0.316 µM
  pIC50: 7.30
Second compound 1 µM
  pIC50: > 7.50
Second compound 3.16 µM
  pIC50: 7.39
Second compound 10 µM
  pIC50: 7.47
[1]
  viability, T/C: 74.1%
[2]
  viability, T/C: 15%
[3]
  viability, T/C: 7.54%
[4]
  viability, T/C: 5%
[5]
  viability, T/C: 5.42%
[6]
  viability, T/C: 5.79%
[7]
  viability, T/C: 70.8%
[8]
  viability, T/C: 15%
[9]
  viability, T/C: 8.57%
[10]
  viability, T/C: 5.57%
[11]
  viability, T/C: 6.67%
[12]
  viability, T/C: 6.18%
[13]
  viability, T/C: 72.2%
[14]
  viability, T/C: 17.8%
[15]
  viability, T/C: 7.48%
[16]
  viability, T/C: 5.56%
[17]
  viability, T/C: 6.42%
[18]
  viability, T/C: 6.89%
[19]
  viability, T/C: 49%
[20]
  viability, T/C: 13.3%
[21]
  viability, T/C: 6.83%
[22]
  viability, T/C: 5.52%
[23]
  viability, T/C: 7.58%
[24]
  viability, T/C: 7.98%
[25]
  viability, T/C: 59.7%
[26]
  viability, T/C: 13.9%
[27]
  viability, T/C: 7.5%
[28]
  viability, T/C: 6.04%
[29]
  viability, T/C: 7.48%
[30]
  viability, T/C: 7.66%
[31]
  viability, T/C: 52.1%
[32]
  viability, T/C: 11.5%
[33]
  viability, T/C: 8.02%
[34]
  viability, T/C: 5.7%
[35]
  viability, T/C: 5.81%
[36]
  viability, T/C: 6.85%
